Entries after “also recorded” stand apart in the source; their conditions may differ.
Key:
[1] = tested on: rat carrageenan model of hindpaw inflammation; experiment: Thermal hyperalgesia (modified Hargreaves apparatus) in rat carrageenan model of hindpaw inflammation; assay type: in vivo; conditions: 10 mg/kg i.p.
Method: However, blockade of HCN channels with ZD7288 at 10 mg/kg, i.p., had no effect on thermal hyperalgesia (measured using a modified Hargreaves apparatus) in two different models of inflammatory pain: the rat carrageenan model of hindpaw inflammation, and the rat complete Freund's adjuvant (CFA) model of hindpaw inflammation. As shown supra, HCN blockade also had little effect on acute thermally evoked pain in the hot plate test.

CFA-injected rats = experiment: Tactile allodynia (von Frey) in complete Freund's adjuvant (CFA) paw model of inflammatory pain; assay type: in vivo, rat; conditions: i.p.; ZD7288 10 mg/kg, ibuprofen 30 mg/kg, morphine 3 mg/kg, gabapentin 100 mg/kg
Ih in large DRG neurons = experiment: Whole cell patch clamp of Ih in dissociated large L5 DRG neurons of SNL and control rats; assay type: cell-based, rat; conditions: Cs+ 3 mM extracellular; ZD7288 50 μM
Method: Methods: Rats were prepared according to the above SNL model (L5 ligation). Sham rats were prepared identically, but without resection of the transverse process to avoid nerve trauma, and without nerve ligation. After 7 days, rats were killed by cervical dislocation and the ipsilateral L4 (no ligation) and L5 DRGs were quickly excised with fine forceps under a stereomicroscope and placed in ice cold Tyrode's containing pen/strep antibiotics.
Dissociation and culture of DRG neurons: DRGs from the L5 level of SNL, sham ligated and naive rats, and the L4 level of SNL rats were removed and maintained in ice-cold Tyrode's solution (140 mM NaCl, 4 mM KCl, 2 mM CaCl2, 1.3 mM MgCl2, 10 mM D-glucose, 10 mM HEPES, pH adjusted to 7.4 with NaOH) with additional 2 mM Ca^+2 (Tyrode's) prior to dissociation. […]
Current and voltage signals were detected and filtered at 2 kHz with an Axopatch 1D patch-clamp amplifier (Axon Instruments, Foster City, Calif.), digitally recorded with a DigiData 1200B laboratory interface (Axon Instruments), and PC compatible computer system and stored on magnetic disk for off-line analysis. […]

human HCN3 = target: T1, human HCN3 (Homo sapiens, UniProt Q9P1Z3); experiment: Whole cell patch clamp of HEK293 cells stably expressing human HCN3; assay type: cell-based; conditions: for reversibility of HCN3 current block: ZD7288: washout of at least 15 min
T1 construct: expressed in transfected cells; host or cells: HEK293 cells stably transfected with hHCN3-pcDNA3.1 Zeo
T1 sequence (Q9P1Z3 1-774): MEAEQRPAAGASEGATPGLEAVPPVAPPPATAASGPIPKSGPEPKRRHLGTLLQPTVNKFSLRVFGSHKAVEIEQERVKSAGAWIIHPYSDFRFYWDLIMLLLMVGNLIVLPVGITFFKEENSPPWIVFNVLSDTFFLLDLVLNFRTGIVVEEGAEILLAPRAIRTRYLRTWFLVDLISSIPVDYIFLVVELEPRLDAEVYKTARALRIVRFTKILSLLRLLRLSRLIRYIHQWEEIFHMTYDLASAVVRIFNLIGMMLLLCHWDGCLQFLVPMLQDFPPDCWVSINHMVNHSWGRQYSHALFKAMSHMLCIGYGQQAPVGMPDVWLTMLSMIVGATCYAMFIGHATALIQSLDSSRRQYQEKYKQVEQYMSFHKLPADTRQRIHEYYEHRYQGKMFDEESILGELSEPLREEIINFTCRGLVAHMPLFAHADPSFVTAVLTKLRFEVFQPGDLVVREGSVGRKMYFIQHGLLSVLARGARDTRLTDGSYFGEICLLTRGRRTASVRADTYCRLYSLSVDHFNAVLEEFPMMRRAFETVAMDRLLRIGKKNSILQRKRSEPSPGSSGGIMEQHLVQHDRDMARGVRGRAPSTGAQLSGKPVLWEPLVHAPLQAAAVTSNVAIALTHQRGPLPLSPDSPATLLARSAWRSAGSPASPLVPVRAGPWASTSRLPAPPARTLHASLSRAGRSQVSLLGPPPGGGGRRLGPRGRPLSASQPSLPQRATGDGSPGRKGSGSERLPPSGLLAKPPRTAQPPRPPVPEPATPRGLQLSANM

[2] = tested on: spontaneous firing of Aβ and Aδ neurons; experiment: In vitro single fiber recording of spontaneous discharges in excised dorsal root/DRG/spinal nerve preparation from SNL rats; assay type: cell-based, rat

SMILES	effect on thermal hyperalgesia [1]	suppression of CFA-induced tactile allodynia (CFA-injected rats)	block of Ih in large DRG neurons (Ih in large DRG neurons)	block of HCN3 hyperpolarization-induced currents (human HCN3; 50 μM, n=3)	reversibility of HCN3 current block (human HCN3)	suppression of spontaneous (ectopic) discharges of Aβ fibers ([2]; 100 μM bath application for 5 min)	effect on spontaneous firing of Aδ fiber ([2]; 100 micromolar)	time to complete suppression of ectopic firing, Aβ fiber ([2]; 100 micromolar)	conduction blockade of evoked action potentials ([2]; after application of ZD7288)	block of HCN3 hyperpolarization-induced inward currents (human HCN3; 3 mM CsCl)
CCN(c1ccccc1)c1cc(=NC)n(C)c(C)n1.Cl [ZD7288]	no effect	suppressed allodynia; also recorded: markedly suppressed	efficacious block	98+/−2%	did not reverse	complete suppression; also recorded: completely suppressed	attenuation of firing	3 to 4 min	no conduction blockade	
[Cl-].[Cs+] [Cs^+, CsCl]			efficacious block		rapidly reversible					completely blocked

Reference: US20030022812A1, “Treating pain by targeting hyperpolarization-activated, cyclic nucleotide-gated channels” (priority 2001, published 2003)
